What was measured:
Assay in all cases: relative viability (nuclei count vs DMSO), 5 days (fraction); higher = more cells survive
[1] = compound: O=C(Nc1cccc(C(F)(F)F)c1)Nc1cc(S(=O)(=O)NC2CC2)ccc1-c1ccsc1 [AGI-6780] + COc1cc2c(Oc3ccc(NC(=O)C4(C(=O)Nc5ccc(F)cc5)CC4)cc3F)ccnc2cc1OCCCN1CCOCC1 [Foretinib] (partner 0.25 µM)
How it was run: (§1)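 Cells from lung cancer lines were seeded into 1536-well plates and, one day later, dosed by pin tool. Treatments were either a single drug or a fixed dose of an anchor drug with five library-drug doses (not always all listed) in √10 steps. After 5 days, nuclei were stained in a one-step fixation (final 0.05% Triton X-100, 1% formaldehyde, 1 ug/ml Hoechst) and counted on 4× images, and relative viability is the treated-to-vehicle nuclei ratio, as the median of duplicate plates.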

[2] = compound: O=C(Nc1cccc(C(F)(F)F)c1)Nc1cc(S(=O)(=O)NC2CC2)ccc1-c1ccsc1 [AGI-6780] + Cc1nc(NC(=O)N2CCC[C@H]2C(N)=O)sc1-c1ccnc(C(C)(C)C(F)(F)F)c1 [Alpelisib] (partner 2 µM)
How it was run: as §1

[3] = compound: O=C(Nc1cccc(C(F)(F)F)c1)Nc1cc(S(=O)(=O)NC2CC2)ccc1-c1ccsc1 [AGI-6780] + Nc1nc2[nH]cc(CCc3ccc(C(=O)N[C@@H](CCC(=O)O)C(=O)O)cc3)c2c(=O)[nH]1 [Pemetrexed] (partner 0.2 µM)
How it was run: as §1

[4] = compound: O=C(Nc1cccc(C(F)(F)F)c1)Nc1cc(S(=O)(=O)NC2CC2)ccc1-c1ccsc1 [AGI-6780] + O=C(c1cc(Cc2n[nH]c(=O)c3ccccc23)ccc1F)N1CCN(C(=O)C2CC2)CC1 [Olaparib] (partner 8 µM)
How it was run: as §1

Row | Cell Line | relative viability ([1]; first compound 0.08 µM) | relative viability ([1]; first compound 0.253 µM) | relative viability ([1]; first compound 0.8 µM) | relative viability ([1]; first compound 2.53 µM) | relative viability ([1]; first compound 8 µM) | relative viability ([2]; first compound 0.08 µM) | relative viability ([2]; first compound 0.253 µM) | relative viability ([2]; first compound 0.8 µM) | relative viability ([2]; first compound 2.53 µM) | relative viability ([2]; first compound 8 µM) | relative viability ([3]; first compound 0.08 µM) | relative viability ([3]; first compound 0.253 µM) | relative viability ([3]; first compound 0.8 µM) | relative viability ([3]; first compound 2.53 µM) | relative viability ([3]; first compound 8 µM) | relative viability ([4]; first compound 0.08 µM) | relative viability ([4]; first compound 0.253 µM) | relative viability ([4]; first compound 0.8 µM) | relative viability ([4]; first compound 2.53 µM) | relative viability ([4]; first compound 8 µM)
1 | NCI-H2009 | 1.23 | 1.23 | 1.19 | 1.24 | 1.14 | 1.21 | 1.12 | 1.17 | 1.13 | 1.25 | 1.14 | 1.1 | 1.01 | 1.14 | 0.957 | 0.643 | 0.745 | 0.67 | 0.644 | 0.625
2 | PC-3 [JPC-3] | 1.08 | 0.986 | 0.969 | 1.05 | 1.01 | 1.02 | 1.02 | 0.976 | 0.983 | 1.02 |  | 1.08 | 1.26 | 1.19 | 0.987 |  | 1.09 | 1.11 | 1.18 | 0.962
3 | NCI-H2170 | 0.994 | 0.978 | 1.1 | 0.928 | 0.984 | 0.813 | 0.838 | 0.86 |  | 0.772 | 0.285 | 0.267 | 0.289 |  | 0.272 | 0.589 | 0.587 | 0.67 |  | 0.59
4 | LCLC-97TM1 | 1.09 | 0.929 | 0.929 | 0.864 | 0.84 | 0.211 | 0.246 | 0.393 |  | 0.351 | 0.173 | 0.157 | 0.192 | 0.156 | 0.192 | 0.41 | 0.532 | 0.394 | 0.264 | 0.378
5 | NCI-H460 | 0.98 | 1.04 | 1.04 | 0.998 | 0.991 | 0.536 | 0.458 | 0.514 | 0.327 | 0.568 | 0.0559 | 0.0709 | 0.0574 | 0.0584 | 0.0641 | 0.413 | 0.444 | 0.487 | 0.291 | 0.447
6 | UMC-11 | 1.03 | 1.03 | 1.23 |  | 1.19 | 0.938 | 0.866 | 1.07 |  | 0.947 | 0.793 | 0.809 | 0.816 |  | 0.868 | 0.393 | 0.38 | 0.4 |  | 0.434
7 | BEN | 0.481 | 0.654 | 0.662 | 0.533 | 0.619 | 1.04 | 0.966 | 1.36 |  | 0.914 | 0.644 | 0.876 | 0.718 |  | 0.965 | 1.02 | 1.02 | 1.22 |  | 0.961
8 | LCLC-103H | 0.883 | 0.745 | 0.702 | 0.652 | 0.748 | 0.916 | 1.01 | 0.906 | 0.983 | 0.78 | 0.455 | 0.421 | 0.477 | 0.51 | 0.473 | 0.762 | 0.755 | 0.716 | 0.688 | 0.721
9 | NCI-H1651 | 0.87 | 0.824 | 0.715 | 0.692 | 0.796 | 0.9 | 0.963 | 0.931 | 0.736 | 0.886 | 0.542 | 0.643 | 0.633 | 0.556 | 0.623 | 0.187 | 0.181 | 0.169 | 0.169 | 0.18
10 | SW 1573 | 0.881 | 1.01 | 0.93 | 0.836 | 0.903 | 0.876 | 0.843 | 0.76 | 0.649 | 0.554 | 0.866 | 0.787 | 0.921 |  | 0.874 | 0.578 | 0.481 | 0.525 | 0.426 | 0.465
11 | NCI-H1975 | 0.979 | 0.944 | 0.897 |  | 0.896 | 0.71 | 0.62 | 0.653 | 0.526 | 0.523 | 0.313 | 0.275 | 0.299 | 0.288 | 0.29 | 0.78 | 0.731 | 0.804 | 0.722 | 0.806
12 | NCI-H650 | 1.06 | 1.05 | 1.04 | 0.961 | 1.07 | 1.15 | 0.956 | 1.15 | 0.855 | 1.26 | 0.935 | 0.943 | 0.993 | 0.893 | 0.945 | 0.349 | 0.413 | 0.437 | 0.303 | 0.388
13 | LC-2-ad | 0.939 | 0.849 | 1.04 | 0.913 | 0.901 | 0.945 | 0.983 | 0.897 | 0.862 | 0.826 | 0.278 | 0.254 | 0.255 | 0.253 | 0.284 | 0.782 | 0.707 | 0.764 | 0.674 | 0.727
14 | NCI-H2023 | 0.984 | 0.823 | 0.829 | 0.777 | 0.825 | 0.674 | 0.595 | 0.596 | 0.447 | 0.617 | 0.283 | 0.235 | 0.242 | 0.256 | 0.204 | 0.5 | 0.444 | 0.437 | 0.374 | 0.492
15 | NCI-H2228 | 1 | 0.767 | 0.598 | 0.709 | 0.853 | 0.904 | 0.831 | 0.563 | 0.618 | 0.635 | 0.338 | 0.343 | 0.384 | 0.34 | 0.391 | 0.686 | 0.769 | 0.591 | 0.41 | 0.736
16 | HCC-78 |  | 0.53 | 0.676 | 0.606 | 0.688 | 0.366 | 0.331 | 0.462 | 0.32 | 0.361 | 0.957 | 0.859 | 0.908 | 0.85 | 0.927 | 0.897 | 0.798 | 1.06 | 0.665 | 0.849
17 | RERF-LC-KJ | 0.871 | 0.904 | 0.88 | 0.597 | 0.909 | 0.784 | 0.824 | 0.779 | 0.672 | 0.75 | 0.497 | 0.466 | 0.469 | 0.497 | 0.466 | 0.928 | 0.892 | 0.943 | 0.906 | 0.878

From the supplement of paper PMC10307832
